Molecules are shown by their SMILES. Values joined by “and” are separate entries in the source; they are usually repeats but may differ in a detail not shown here. Identical values can stand only once.

The target in one assay is SERCA2a (Sus scrofa, UniProt P11607). As to the kind of experiment: NADH-coupled enzyme-linked Ca2+-ATPase activity assay in cardiac SR vesicles. The format is biochemical, porcine. Conditions: Ca2+-ATPase activity, [Ca2+]MAX (pCa 5.4), vs no compound; mean±SD, n=4-6.
Sequence of SERCA2a (P11607 1-997 isoform P11607-2): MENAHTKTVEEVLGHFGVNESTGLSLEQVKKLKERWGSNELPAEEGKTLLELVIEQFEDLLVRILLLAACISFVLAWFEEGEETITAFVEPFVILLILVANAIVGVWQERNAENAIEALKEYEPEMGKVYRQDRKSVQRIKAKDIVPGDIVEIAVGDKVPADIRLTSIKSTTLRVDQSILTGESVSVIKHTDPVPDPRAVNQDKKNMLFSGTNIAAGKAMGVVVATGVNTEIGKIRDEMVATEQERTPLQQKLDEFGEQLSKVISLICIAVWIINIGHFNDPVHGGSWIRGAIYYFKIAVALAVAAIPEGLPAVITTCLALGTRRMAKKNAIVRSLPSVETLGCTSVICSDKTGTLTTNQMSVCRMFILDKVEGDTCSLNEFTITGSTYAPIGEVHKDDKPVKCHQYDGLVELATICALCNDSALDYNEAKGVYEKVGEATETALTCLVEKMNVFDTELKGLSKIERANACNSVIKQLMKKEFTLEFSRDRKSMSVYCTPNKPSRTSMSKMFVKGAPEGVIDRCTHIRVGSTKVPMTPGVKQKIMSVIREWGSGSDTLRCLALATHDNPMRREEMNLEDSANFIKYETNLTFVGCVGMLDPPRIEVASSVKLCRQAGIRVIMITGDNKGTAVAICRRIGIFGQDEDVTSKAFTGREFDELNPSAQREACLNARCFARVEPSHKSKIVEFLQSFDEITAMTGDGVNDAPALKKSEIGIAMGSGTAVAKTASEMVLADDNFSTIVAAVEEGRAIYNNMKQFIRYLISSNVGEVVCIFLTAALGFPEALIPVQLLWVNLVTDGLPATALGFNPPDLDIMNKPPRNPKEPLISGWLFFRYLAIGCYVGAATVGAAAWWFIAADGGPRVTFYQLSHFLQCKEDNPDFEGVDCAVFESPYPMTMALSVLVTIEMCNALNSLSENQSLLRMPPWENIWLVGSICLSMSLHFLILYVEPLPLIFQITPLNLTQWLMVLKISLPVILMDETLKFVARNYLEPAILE
As for `COc1ccccc1CN(CCO)C(=O)c1cc(C)c(C)s1` [Compound 36, N-(2-Hydroxyethyl)-N-(2-methoxybenzyl)-4,5-dimethylthiophene-2-carboxamide], the “Max increase (%)” value is recorded as “abolished”.
On to `CCCN(Cc1ccccc1OC)C(=O)c1cccc(OC)c1` [Compound 19, 3-Methoxy-N-(2-methoxybenzyl)-N-propylbenzamide], for which the “Max increase (%)” value worked out at 45±14%.
Still for that read-out and setting: as for `CCCN(Cc1ccccc1OC)C(=O)c1cccc(F)c1` [Compound 13, 3-Fluoro-N-(2-methoxybenzyl)-N-propylbenzamide], the figure is 53±17%; as for `COc1ccccc1CN(CCC(F)(F)F)C(=O)c1cc(C)c(C)s1` [Compound 41, N-(2-Methoxybenzyl)-4,5-dimethyl-N-(3,3,3-trifluoropropyl)thiophene-2-carboxamide], 75% and 75±8.6%.
Regarding `CCCN(Cc1ccccc1OC)C(=O)c1ccccc1C` [Compound 9, N-(2-Methoxybenzyl)-2-methyl-N-propylbenzamide], the “Max increase (%)” value turned out to be 28±10%.
Take `COc1ccccc1CN(C)C(=O)c1cc(C)c(C)s1` [Compound 31, N-(2-Methoxybenzyl)-N,4,5-trimethylthiophene-2-carboxamide]: the “Max increase (%)” value is on record as 52±9.2%.
`CCCN(Cc1ccccc1)C(=O)c1cc(C)c(C)s1` [Compound 44, N-Benzyl-4,5-dimethyl-N-propylthiophene-2-carboxamide]: the “Max increase (%)” value is reported as “abolished activity”.
For `CCCN(Cc1ccccc1OC)C(=O)c1ccccc1OC` [Compound 18, 2-Methoxy-N-(2-methoxybenzyl)-N-propylbenzamide], the “Max increase (%)” value was 27±9.3%.
For `CCCN(Cc1ccccc1OC)C(=O)c1ccc(Cl)s1` [Compound 6, 5-Chloro-N-(2-methoxybenzyl)-N-propylthiophene-2-carboxamide], the “Max increase (%)” value was determined as 37±9.4%.
Turning to `CCN(Cc1ccccc1OC)C(=O)c1ccc(F)c(Br)c1` [Compound 53, 3-Bromo-N-ethyl-4-fluoro-N-(2-methoxybenzyl)benzamide], the “Max increase (%)” value was 45±8.4%.
For the molecule `CCCN(Cc1ccccc1OC)C(=O)c1cc2ccccc2s1` [Compound 7, N-(2-Methoxybenzyl)-N-propylbenzo[b]thiophene-2-carboxamide], the “Max increase (%)” value was 76% and 76±19%.
For `CCCN(Cc1ccccc1OC)C(=O)c1cccs1` [Compound 4, N-(2-Methoxybenzyl)-N-propylthiophene-2-carboxamide], the “Max increase (%)” value came out at 30±14%.
Turning to `CCCN(Cc1ccccc1OC)C(=O)c1cccc(Cl)c1` [Compound 16, 3-Chloro-N-(2-methoxybenzyl)-N-propylbenzamide], the “Max increase (%)” value is 61±9.4%.
As to `CCCN(Cc1ccncc1F)C(=O)c1cc(C)c(C)s1` [Compound 50, N-((3-Fluoropyridin-4-yl)methyl)-4,5-dimethyl-N-propylthiophene-2-carboxamide], the “Max increase (%)” value is “ablated activity”.
Same read-out and setting: as for `CCCN(Cc1ccccc1OC)C(=O)c1ccccc1F` [Compound 12, 2-Fluoro-N-(2-methoxybenzyl)-N-propylbenzamide], the figure is 40±10%; as for `CCN(Cc1ccccc1OC)C(=O)c1cccc(Br)c1` [Compound 51, 3-Bromo-N-ethyl-N-(2-methoxybenzyl)benzamide], 46±6.3%.
On to `CCCN(Cc1ccccc1OC)C(=O)c1ccccc1C(F)(F)F` [Compound 20, N-(2-Methoxybenzyl)-N-propyl-2-(trifluoromethyl)benzamide], for which the “Max increase (%)” value was 51% and 51±17%.
`CCCN(Cc1ccccc1OC)C(=O)c1scc(C)c1C` [Compound 2, N-(2-Methoxybenzyl)-3,4-dimethyl-N-propylthiophene-2-carboxamide]: the “Max increase (%)” value is recorded as 47±7.1%.
On to `CCCN(Cc1ccccc1OC)C(=O)c1ccc(C)cc1` [Compound 11, N-(2-Methoxybenzyl)-4-methyl-N-propylbenzamide], for which the “Max increase (%)” value worked out at 61±7.0%.
As to `COc1ccccc1CNC(=O)c1cc(C)c(C)s1` [Compound 30, N-(2-methoxybenzyl)-4,5-dimethylthiophene-2-carboxamide], the “Max increase (%)” value is reported as 24±9.1%.
Still for that read-out and setting: as for `CCCN(Cc1ccccc1OC)C(=O)c1cccc(Br)n1` [Compound 27, 6-Bromo-N-(2-methoxybenzyl)-N-propylpicolinamide], the figure is 46±7.8%; as for `COc1ccccc1CN(CCCF)C(=O)c1cc(C)c(C)s1` [Compound 39, N-(3-Fluoropropyl)-N-(2-methoxybenzyl)-4,5-dimethylthiophene-2-carboxamide], 22% and 22±8.6%.
Regarding `COc1cccc2c1CN(C(=O)c1cc(C)c(C)s1)CC2` [Compound 42, (4,5-diMethylthiophen-2-yl)(8-methoxy-3,4-dihydroisoquinolin-2(1H)-yl)methanone], the “Max increase (%)” value is 22% and 22±6.4%.
As to `CCCN(Cc1ccccc1OC)C(=O)c1cncc(Br)c1` [Compound 28, 5-Bromo-N-(2-methoxybenzyl)-N-propylnicotinamide], the “Max increase (%)” value is reported as 28±5.7%.
The same measure, in the same setting: as for `COc1ccccc1CN(C(=O)c1cc(C)c(C)s1)C(C)C` [Compound 34, N-Isopropyl-N-(2-methoxybenzyl)-4,5-dimethylthiophene-2-carboxamide], the figure is 43±7.9%; as for `CCCN(Cc1ccccc1OC)C(=O)c1cccc(C)c1` [Compound 10, N-(2-Methoxybenzyl)-3-methyl-N-propylbenzamide], 59±13%; as for `CCCN(Cc1ccccc1OC)C(=O)c1ccsc1` [Compound 5, N-(2-Methoxybenzyl)-N-propylthiophene-3-carboxamide], 29±8.4%.
Same read-out and setting: as for `CCN(Cc1ccccc1OC)C(=O)c1cccc(Br)c1F` [Compound 52, 3-Bromo-N-ethyl-2-fluoro-N-(2-methoxybenzyl)benzamide], the figure is 46±7.4%; as for `CCCN(Cc1ccccc1OC)C(=O)c1ccnc(Br)c1` [Compound 29, 2-Bromo-N-(2-methoxybenzyl)-N-propylisonicotinamide], 21±4.9%.
Turning to `CCCN(Cc1ccccc1OC)C(=O)c1ccccc1Cl` [Compound 15, 2-Chloro-N-(2-methoxybenzyl)-N-propylbenzamide], the “Max increase (%)” value came out at 35±10%.
Turning to `CCCN(Cc1ccccc1F)C(=O)c1cc(C)c(C)s1` [Compound 48, N-(2-Fluorobenzyl)-4,5-dimethyl-N-propylthiophene-2-carboxamide], the “Max increase (%)” value is 89% and 89±24%.
Regarding `CCCN(Cc1ccccc1OC)C(=O)c1ccc(F)cc1` [Compound 14, 4-Fluoro-N-(2-methoxybenzyl)-N-propylbenzamide], the “Max increase (%)” value worked out at 55±11%.
The same measure, in the same setting: as for `COc1ccccc1CN(C(=O)c1cc(C)c(C)s1)C1CC1` [Compound 35, N-Cyclopropyl-N-(2-methoxybenzyl)-4,5-dimethylthiophene-2-carboxamide], the figure is 46±8.9%; as for `CCCN(Cc1ccccc1OC)C(=O)c1ccc(Cl)cc1` [Compound 17, 4-Chloro-N-(2-methoxybenzyl)-N-propylbenzamide], 64±7.6%.

The assay is the same for the next values; noted with them: Ca2+-ATPase activity, [Ca2+]MAX (pCa 5.4); mean±SD, n=4-6.
`CCN(Cc1ccccc1OC)C(=O)c1cc(F)c(C)c(Br)c1` [Compound 54, 3-Bromo-N-ethyl-5-fluoro-N-(2-methoxybenzyl)-4-methylbenzamide]: the “Max decrease (%)” value is given as −70±3.4%.

The same assay, now with this note: read-out: inhibition of Ca2+-ATPase activity.
With `CCN(Cc1ccccc1OC)C(=O)c1cc(F)c(C)c(Br)c1` [Compound 54, 3-Bromo-N-ethyl-5-fluoro-N-(2-methoxybenzyl)-4-methylbenzamide], the inhibition at 50 µM is 70%.

Broadly, the inhibition is the change of the read-out against control, counted positive when it falls.

For the origin of these results see paper PMC12900291 (European journal of medicinal chemistry, 2025).
